The results in this text go back to patent US7354726B2, “Screening method” (Takeda Pharmaceutical Company Limited, priority 2001, dated 2008).

For test [1], the target named is T1, TGR5 (Homo sapiens, UniProt Q8TDU6).
T1 sequence (Q8TDU6 1-330): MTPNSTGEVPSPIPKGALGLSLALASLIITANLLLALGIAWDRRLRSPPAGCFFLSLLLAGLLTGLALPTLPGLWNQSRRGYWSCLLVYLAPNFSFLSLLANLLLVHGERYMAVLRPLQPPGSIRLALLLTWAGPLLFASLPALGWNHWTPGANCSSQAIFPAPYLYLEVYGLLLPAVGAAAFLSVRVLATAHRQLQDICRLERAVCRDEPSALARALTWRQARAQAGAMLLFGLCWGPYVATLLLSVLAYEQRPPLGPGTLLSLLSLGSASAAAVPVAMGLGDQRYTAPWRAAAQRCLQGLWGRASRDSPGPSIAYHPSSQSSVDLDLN
As to the kind of experiment: cAMP production in TGR5 expressing CHO cells (CHO-TGR5). The note with it: CHO-TGR5, 20 minutes; potency in order TLCA, LCA, DCA, CDCA, CA. More on the design: expressed in transfected cells. It counts as cell-based. On the procedure:
The cells were washed twice with assay buffer (DMEM supplemented with 0.1% bovine serum albumin and 0.2 mM 3-isobutyl-1-methylxanthine (IBMX)) and preincubated for 30 minutes. After washing the cells twice, a sample diluted with assay buffer was added to the cells, and the cells were incubated for 20 minutes. The culture supernatant was discarded, and by cAMP Screen System (ABI), cAMP production level was measured. […] The cAMP production level was represented by % for positive control as 100%.

Another test has as its target T2, rabbit TGR5 (Oryctolagus cuniculus, UniProt Q862A8).
T2 construct: expressed in transfected cells; host or cells: CHO-mock cells, transient, with Gi plasmid and reporter plasmid
T2 sequence (Q862A8 1-330): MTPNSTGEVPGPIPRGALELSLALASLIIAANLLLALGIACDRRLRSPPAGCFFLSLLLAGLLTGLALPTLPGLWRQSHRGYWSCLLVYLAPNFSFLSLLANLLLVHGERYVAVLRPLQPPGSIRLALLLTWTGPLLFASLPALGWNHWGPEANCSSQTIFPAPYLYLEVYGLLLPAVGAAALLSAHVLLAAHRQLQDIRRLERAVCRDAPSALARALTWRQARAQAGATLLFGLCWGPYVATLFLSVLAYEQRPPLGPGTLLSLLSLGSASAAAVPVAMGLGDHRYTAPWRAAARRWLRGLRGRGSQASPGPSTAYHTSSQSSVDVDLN
As to the kind of experiment: CRE-luciferase reporter assay in CHO-mock cells co-expressing Gi and rabbit TGR5. The note with it: 10 μM bile acid, rabbit TGR5, versus group with no bile acid (Base). The format is cell-based. The protocol:
(§1) Alternatively, an assay under condition wherein forskolin was added to the assay buffer at the final concentration of 2 μM, was performed in the same way. […] After completion of incubation, the assay buffer was removed from each well. Then 50 μl of luminescent substrate for PicaGene LT2.0 (Toyo Ink) was added to each well.
(§2) The mixing ratio of these three plasmids is, where the total volume is 11 μl, appropriate for 1 to 6, preferably 1 to 3 of Gi.
(§3) For a positive control of reporter gene expression, forskolin (FSSK, 2 μM) was used.

The next test deals with T3, bovine TGR5 (Bos taurus, UniProt Q862A9).
T3 construct: expressed in transfected cells; host or cells: CHO-mock cells, transient, with Gi plasmid and reporter plasmid
T3 sequence (Q862A9 1-329): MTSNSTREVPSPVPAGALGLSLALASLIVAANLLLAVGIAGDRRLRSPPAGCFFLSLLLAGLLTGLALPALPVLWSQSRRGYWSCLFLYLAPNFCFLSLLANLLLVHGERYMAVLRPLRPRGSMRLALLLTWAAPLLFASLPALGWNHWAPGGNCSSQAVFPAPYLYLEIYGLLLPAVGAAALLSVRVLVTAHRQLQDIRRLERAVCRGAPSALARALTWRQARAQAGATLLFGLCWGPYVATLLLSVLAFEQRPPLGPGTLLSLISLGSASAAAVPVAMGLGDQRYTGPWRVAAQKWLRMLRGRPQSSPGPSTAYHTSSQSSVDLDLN
As to the kind of experiment: CRE-luciferase reporter assay in CHO-mock cells co-expressing Gi and bovine TGR5. The format is cell-based. The note with it: 10 μM bile acid, bovine TGR5, versus group with no bile acid (Base). On the procedure:
as §1, §2, §3

The target of another test is T4, mouse TGR5 (Mus musculus, UniProt Q80SS6).
T4 construct: expressed in transfected cells; host or cells: CHO-mock cells, transient, with Gi plasmid and reporter plasmid
T4 sequence (Q80SS6 1-329): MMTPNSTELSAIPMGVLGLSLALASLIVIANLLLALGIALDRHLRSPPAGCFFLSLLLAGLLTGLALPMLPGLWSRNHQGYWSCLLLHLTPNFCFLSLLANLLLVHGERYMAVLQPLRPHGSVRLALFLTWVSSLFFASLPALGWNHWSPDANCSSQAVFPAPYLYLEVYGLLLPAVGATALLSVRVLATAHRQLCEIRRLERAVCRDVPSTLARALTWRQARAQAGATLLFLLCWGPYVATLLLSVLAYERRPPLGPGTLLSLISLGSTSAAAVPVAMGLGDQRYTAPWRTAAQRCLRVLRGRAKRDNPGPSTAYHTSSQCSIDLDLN
As to the kind of experiment: CRE-luciferase reporter assay in CHO-mock cells co-expressing Gi and mouse TGR5. The format is cell-based. The note with it: 10 μM bile acid, mouse TGR5, versus group with no bile acid (Base). On the procedure: as §1, §2, §3
A general note: Reporter assays use an easily measured gene product as a stand-in for the process of interest.

Another test deals with T5, rat TGR5 (Rattus norvegicus, UniProt Q80T02).
T5 construct: expressed in transfected cells; host or cells: CHO-mock cells, transient, with Gi plasmid and reporter plasmid
T5 sequence (Q80T02 1-329): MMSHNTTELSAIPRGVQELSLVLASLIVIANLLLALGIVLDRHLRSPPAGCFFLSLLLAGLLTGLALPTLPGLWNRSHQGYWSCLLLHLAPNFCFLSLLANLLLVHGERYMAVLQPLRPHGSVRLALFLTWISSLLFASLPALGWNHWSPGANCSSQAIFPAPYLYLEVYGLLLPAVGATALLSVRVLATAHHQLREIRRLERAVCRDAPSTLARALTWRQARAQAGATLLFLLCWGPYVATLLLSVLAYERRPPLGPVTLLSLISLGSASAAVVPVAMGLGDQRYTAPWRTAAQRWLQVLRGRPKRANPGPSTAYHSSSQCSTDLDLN
As to the kind of experiment: CRE-luciferase reporter assay in CHO-mock cells co-expressing Gi and rat TGR5. It counts as cell-based. To be noted: 10 μM bile acid, rat TGR5, versus group with no bile acid (Base). The protocol: as §1, §2, §3

Test [2] deals with T1, TGR5. As to the kind of experiment: CRE-luciferase reporter assay in CHO-mock cells co-expressing Gi and human TGR5. The format is cell-based. More on the design: expressed in transfected cells; host or cells: CHO-mock cells (CHO(dhfr-) transformed with pAKKO-111H), transient, with Gi plasmid and reporter plasmid. The note with it: 10 μM bile acid, human TGR5, versus group with no bile acid (Base). The protocol: as §1, §2, §3

For test [3], the system named is rabbit alveolus macrophage. As to the kind of experiment: Phagocytotic activity of rabbit alveolus macrophage (yeast uptake, fuchsin staining). The note with it: 100 μM, 16 hours.
Protocol: From rabbit (NZW, female, approximately 2.5 to 3.0 kg of weight), under anesthesia, serum and lung were collected. By washing with PBS (phosphate-buffered saline) transfused through trachea, suspension containing alveolus macrophage in the lung was recovered. After washing the obtained cells with further PBS, the cells were suspended in medium (DMEM supplemented with 2% FBS, 0.1 mM non-essential amino acids, 50 μg/ml streptomycin, 50 U/ml penicillin and 50 μg/ml gentamicin; any component from GibcoBRL), loaded on Ficoll-Paque Plus (Amersham Pharmacia), isolator for mononuclear cells, and treated with centrifugation to remove erythrocyte. […] Then the cells were further cultured for 16 hours. Fifty μl of serum obtained from the same rabbit, and 0.8×10^8/ml of yeast suspension sterilized by heating, were added to the culture. Subsequently, the cell were cultured under 5% CO2 for 40 minutes. After adding 60 μl of 0.1% fuchsin solution (Wako Pure Chemicals) to the culture, the cells were peeled and were centrifuged. The suspension was observed by microscope.

Consider `C[C@H](CCC(=O)O)[C@H]1CC[C@H]2[C@@H]3[C@H](O)C[C@@H]4C[C@H](O)CC[C@]4(C)[C@H]3C[C@H](O)[C@]12C` [CA, cholic acid], for which, at TGR5 [1], the cAMP production result is recorded as “increase of cAMP production, which is dependent on concentration”.
`C[C@H](CCC(=O)O)[C@H]1CC[C@H]2[C@@H]3[C@H](O)C[C@@H]4C[C@H](O)CC[C@]4(C)[C@H]3CC[C@]12C` [CDCA, chenodeoxycholic acid]: the “luciferase activity (reporter gene expression level)” value on rabbit TGR5, on bovine TGR5, at mouse TGR5, at rat TGR5 and at TGR5 [2] was “higher luciferase activity than that of a group with no bile acid” throughout. Besides, the cAMP production entry at TGR5 [1] was “increase of cAMP production, which is dependent on concentration”.
In the case of `C[C@H](CCC(=O)NCC(=O)O)[C@H]1CC[C@H]2[C@@H]3CC[C@@H]4C[C@H](O)CC[C@]4(C)[C@H]3CC[C@]12C` [GLCA, glycolithocholic acid], the “phagocytotic activity of macrophage” value in test [3] was “significantly decreased”.
